Reference: BindingDB's records for patent US11718589 (Case Western Reserve University, 2023)

These molecules were tested against T1, 15-hydroxyprostaglandin dehydrogenase [NAD(+)] (Homo sapiens, UniProt P15428) (assay: In Vitro Assay).
T1 sequence (P15428 whole entry): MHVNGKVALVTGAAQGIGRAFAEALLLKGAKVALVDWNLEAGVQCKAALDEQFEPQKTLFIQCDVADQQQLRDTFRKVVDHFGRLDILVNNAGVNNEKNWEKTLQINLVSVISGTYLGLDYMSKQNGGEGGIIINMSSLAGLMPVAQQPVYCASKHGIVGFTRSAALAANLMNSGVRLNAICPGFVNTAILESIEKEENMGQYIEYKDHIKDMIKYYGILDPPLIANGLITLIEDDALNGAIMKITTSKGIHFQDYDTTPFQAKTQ

Q: Which IC50 does the source give for `CCCCS(=O)(=O)c1cc2nc(-c3ccc(OC)cc3)cc(C(F)(F)F)n2n1` [US11718589, Compound 4a] here?
A: The IC50 was > 2500 nM.

Q: For `CCNC(=O)c1cc2nc(-c3ccc(OC)cc3)cc(C(F)(F)F)n2n1` [US11718589, Compound 7a], which IC50 is on record?
A: Its IC50 is > 2500 nM.

Q: Which IC50 does the source give for `CCCC[S+]([O-])c1cc2nc(-c3ccc(OC)cc3)cc(-c3ccc(F)cc3)n2n1` (stereo unspecified) [US11718589, Compound 6a] here?
A: Its IC50 is 59 nM.

Q: `COc1ccc(-c2cc(C(F)(F)F)n3nc(C(=O)NCCO)cc3n2)cc1` [US11718589, Compound 12a] was tested. Which IC50 did it give?
A: The IC50 was > 2500 nM.

Q: For `CCCC[S+]([O-])c1cc2nc(-c3ccc(OC)cc3)cc(-c3ccccc3)n2n1` (stereo unspecified) [US11718589, Compound 5a], which IC50 is on record?
A: The IC50 was 39 nM.

Q: For `CCCC[S+]([O-])c1cc2nc(-c3ccc(OC)cc3)cc(C(F)(F)F)n2n1` (stereo unspecified) [US11718589, Compound 3a], which IC50 is on record?
A: Its IC50 is 35.5 nM.
